# Test results reported in the supplement of paper PMC10011410.
# Legend:
# U-2 OS [1] = assay: AUC of culture confluence over time (live-cell imaging) (AUC (confluence % x time)); higher = more confluent culture (less growth inhibition)
# Protocol: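 Live-cell Incucyte imaging of U-2 OS cells in F-12K medium. Compounds were tested mostly at 5, 10 and 20 uM, and cells were imaged every 4 h for up to 60 h. Value is the area under the curve of phase-contrast confluence over time.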
# U-2 OS [2] = assay: relative cell count vs DMSO (cell painting) (fraction of DMSO control); higher = more cells remaining (less cytotoxic); conditions: 24 h
# Protocol: (§1)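 Cell painting in U-2 OS cells (384-well, about 1,500 cells per well), compound exposure 24 h, usually six 2-fold concentrations from 20 to 0.625 uM (some compounds higher or lower). Relative cell count is the cell number per well relative to DMSO wells. Activity score is the Mahalanobis distance of the morphological profile from DMSO control wells. Mean of four technical replicate plates.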
# U-2 OS [3] = assay: cell painting activity score (Mahalanobis distance from DMSO wells); higher = stronger morphological phenotype; conditions: 24 h
# Protocol: as §1
SMILES,AUC of culture confluence over time (U-2 OS [1]; 5 µM),AUC of culture confluence over time (U-2 OS [1]; 10 µM),AUC of culture confluence over time (U-2 OS [1]; 20 µM),relative cell count (U-2 OS [2]; 0.625 µM),relative cell count (U-2 OS [2]; 1.25 µM),relative cell count (U-2 OS [2]; 2.5 µM),relative cell count (U-2 OS [2]; 5 µM),relative cell count (U-2 OS [2]; 10 µM),relative cell count (U-2 OS [2]; 20 µM),cell painting activity score (U-2 OS [3]; 0.625 µM),cell painting activity score (U-2 OS [3]; 1.25 µM),cell painting activity score (U-2 OS [3]; 2.5 µM),cell painting activity score (U-2 OS [3]; 5 µM),cell painting activity score (U-2 OS [3]; 10 µM),cell painting activity score (U-2 OS [3]; 20 µM),AUC of culture confluence over time (U-2 OS [1]; 40 µM),AUC of culture confluence over time (U-2 OS [1]; 80 µM),relative cell count (U-2 OS [2]; 40 µM),relative cell count (U-2 OS [2]; 80 µM),cell painting activity score (U-2 OS [3]; 40 µM),cell painting activity score (U-2 OS [3]; 80 µM)
O=C(O)C[C@@H]1C(=O)O[C@H]2[C@@H]3OC(=O)c4cc(O)c(O)c(O)c4-c4c(cc(O)c(O)c4O)C(=O)OC[C@H]2O[C@@H](OC(=O)c2cc(O)c(O)c(O)c2)[C@@H]3OC(=O)c2cc(O)c(O)c3c2[C@H]1[C@H](O)C(=O)O3,45.6,45.4,41.8,1.01,1,1.06,1.04,1.05,1.05,3.42,3.94,4.16,5.6,5.3,8.86,,,,,,
C[C@H](CC[C@@]1(O)O[C@H]2C[C@H]3[C@@H]4CC=C5C[C@@H](O[C@@H]6O[C@H](CO)[C@@H](O[C@@H]7O[C@@H](C)[C@H](O)[C@@H](O)[C@H]7O)[C@H](O)[C@H]6O[C@@H]6O[C@@H](C)[C@H](O)[C@@H](O)[C@H]6O)CC[C@]5(C)[C@H]4CC[C@]3(C)[C@H]2[C@@H]1C)CO[C@@H]1O[C@H](CO)[C@@H](O)[C@H](O)[C@H]1O,,,,0.811,0.808,0.734,0.502,0.0412,0.0114,14.9,14.4,15.1,16.6,21,22.7,,,,,,
COS(=O)(=O)O.C[n+]1c2ccccc2nc2ccccc21,,,,0.956,0.92,0.807,0.265,0.282,0.0549,4.8,5.06,9.91,14.3,19.6,23.1,,,,,,
CCOC(=O)C1=C(C)NC(=S)N[C@@H]1c1cccc(O)c1,48.6,50.3,44.1,0.936,0.94,1.01,0.941,0.954,0.999,4.88,4.81,5.49,5.58,4.56,4.64,,,,,,
COc1cc([C@@H]2c3cc4c(cc3[C@@H](O[C@@H]3O[C@@H]5CO[C@@H](C)O[C@H]5[C@H](O)[C@H]3O)[C@H]3COC(=O)[C@H]23)OCO4)cc(OC)c1O,26.2,24.8,18.3,0.661,0.635,0.568,0.604,0.551,0.536,11.9,14,12.9,14.6,14.4,15.2,,,,,,
ClC1=CC=C(C2=CSC(N/N=C3CCCC/3)=N2)C=C1,,,,1.01,1.04,0.973,1,0.97,0.882,3.41,3.02,4.44,4.27,4.6,7.83,39.7,41.8,0.758,0.766,10,11
O=C(O)C1(C(=O)O)CCC1.[NH2-].[NH2-].[Pt+2],,,,0.92,0.853,0.786,0.855,0.844,0.814,4.1,4.15,4.49,4.29,5.7,6.66,,,,,,
O=C1O[C@H]2[C@@H]3OC(=O)c4cc(O)c(O)c(O)c4-c4c(O)c(O)c5oc(=O)c6c(c(O)c(O)c7oc(=O)c4c5c76)-c4c(cc(O)c(O)c4O)C(=O)OC[C@H]3OC(O)[C@@H]2OC(=O)c2cc(O)c(O)c(O)c2-c2c1cc(O)c(O)c2O (stereo partly specified),47.1,42.3,38.4,1.01,1,1.04,1.02,0.968,0.808,5.43,7.35,6.54,7.71,7.7,12.5,,,,,,
CCc1c2c(nc3ccc(OC(=O)N4CCC(N5CCCCC5)CC4)cc13)-c1cc3c(c(=O)n1C2)COC(=O)[C@]3(O)CC.Cl,31.5,25.7,22,0.924,0.783,0.705,0.614,0.554,0.566,7.03,8.8,9.65,10.7,11,11.2,,,,,,
COc1c(O)c2c(=O)cc3c4c5c(cc(=O)c6c(O)c(OC)c(CC(C)O)c(c(c1CC(C)O)c24)c65)OCO3 (stereo unspecified),,,,0.971,0.918,0.859,0.682,0.499,0.366,4.68,7.7,10.5,13,12,13.9,,,,,,
